Reference: the NIST ThermoML archive (doi:10.1021/je9010568)

What was measured:
[1] = Liquid
[2] = φn = volume fraction of the nth substance listed; details: Liquid, φ1 = 0.55

CC(O)CO (centres undefined) [1,2-propanediol]
[1]
Details	specific volume [m3/kg]
273.15 K, 100 kPa, Vibrating tube method	0.0009519
274.15 K, 100 kPa, Vibrating tube method	0.0009525
275.15 K, 100 kPa, Vibrating tube method	0.0009532
276.15 K, 100 kPa, Vibrating tube method	0.0009538
277.15 K, 100 kPa, Vibrating tube method	0.0009544
278.15 K, 100 kPa, Vibrating tube method	0.0009551
279.15 K, 100 kPa, Vibrating tube method	0.0009557
280.15 K, 100 kPa, Vibrating tube method	0.0009563
281.15 K, 100 kPa, Vibrating tube method	0.000957
282.16 K, 100 kPa, Vibrating tube method	0.0009576
283.16 K, 100 kPa, Vibrating tube method	0.0009583
284.16 K, 100 kPa, Vibrating tube method	0.0009589
285.16 K, 100 kPa, Vibrating tube method	0.0009596
286.16 K, 100 kPa, Vibrating tube method	0.0009602
287.16 K, 100 kPa, Vibrating tube method	0.0009609
287.78 K, 298200 kPa, Bellows volumetry	0.0008796
287.98 K, 348900 kPa, Bellows volumetry	0.0008706
288.05 K, 100 kPa, Vibrating tube method	0.0009615
288.05 K, 49200 kPa, Bellows volumetry	0.0009434
288.1 K, 299700 kPa, Bellows volumetry	0.0008829
288.11 K, 148700 kPa, Bellows volumetry	0.0009148
288.12 K, 198400 kPa, Bellows volumetry	0.0009035
288.12 K, 248700 kPa, Bellows volumetry	0.0008932
288.14 K, 99900 kPa, Bellows volumetry	0.0009277
288.15 K, 99300 kPa, Bellows volumetry	0.000926
288.16 K, 100 kPa, Vibrating tube method	0.0009616
288.17 K, 49000 kPa, Bellows volumetry	0.0009425
288.17 K, 349200 kPa, Bellows volumetry	0.0008746
288.2 K, 249300 kPa, Bellows volumetry	0.0008891
288.21 K, 148200 kPa, Bellows volumetry	0.0009125
288.22 K, 99800 kPa, Bellows volumetry	0.0009279
288.24 K, 199500 kPa, Bellows volumetry	0.0009
288.28 K, 149900 kPa, Bellows volumetry	0.0009146
288.29 K, 250100 kPa, Bellows volumetry	0.0008927
288.31 K, 100 kPa, Vibrating tube method	0.0009617
288.31 K, 199600 kPa, Bellows volumetry	0.0009031
288.31 K, 299900 kPa, Bellows volumetry	0.0008834
288.32 K, 349100 kPa, Bellows volumetry	0.000875
288.34 K, 100 kPa, Vibrating tube method	0.0009617
288.38 K, 48800 kPa, Bellows volumetry	0.0009437
289.16 K, 100 kPa, Vibrating tube method	0.0009622
290.15 K, 100 kPa, Vibrating tube method	0.0009629
291.15 K, 100 kPa, Vibrating tube method	0.0009636
292.15 K, 100 kPa, Vibrating tube method	0.0009643
293.15 K, 100 kPa, Vibrating tube method	0.0009649
294.15 K, 100 kPa, Vibrating tube method	0.0009656
295.15 K, 100 kPa, Vibrating tube method	0.0009663
296.16 K, 100 kPa, Vibrating tube method	0.000967
297.16 K, 100 kPa, Vibrating tube method	0.0009677
298.16 K, 100 kPa, Vibrating tube method	0.0009684
299.16 K, 100 kPa, Vibrating tube method	0.0009691
300.16 K, 100 kPa, Vibrating tube method	0.0009698
301.16 K, 100 kPa, Vibrating tube method	0.0009705
302.16 K, 100 kPa, Vibrating tube method	0.0009712
303.16 K, 100 kPa, Vibrating tube method	0.0009719
304.15 K, 100 kPa, Vibrating tube method	0.0009726
305.15 K, 100 kPa, Vibrating tube method	0.0009733
306.15 K, 100 kPa, Vibrating tube method	0.000974
307.15 K, 100 kPa, Vibrating tube method	0.0009747
308.15 K, 100 kPa, Vibrating tube method	0.0009754
309.15 K, 100 kPa, Vibrating tube method	0.0009761
310.15 K, 100 kPa, Vibrating tube method	0.0009769
311.15 K, 100 kPa, Vibrating tube method	0.0009776
312.15 K, 100 kPa, Vibrating tube method	0.0009783
313.15 K, 100 kPa, Vibrating tube method	0.000979

CC(O)CO (centres undefined) [1,2-propanediol] + O
[2]
Details	specific volume [m3/kg]
273.15 K, 100 kPa, Vibrating tube method	0.0009499
274.15 K, 100 kPa, Vibrating tube method	0.0009505
275.15 K, 100 kPa, Vibrating tube method	0.000951
276.15 K, 100 kPa, Vibrating tube method	0.0009516
277.15 K, 100 kPa, Vibrating tube method	0.0009521
278.15 K, 100 kPa, Vibrating tube method	0.0009527
279.15 K, 100 kPa, Vibrating tube method	0.0009533
280.15 K, 100 kPa, Vibrating tube method	0.0009539
281.15 K, 100 kPa, Vibrating tube method	0.0009544
282.15 K, 100 kPa, Vibrating tube method	0.000955
283.15 K, 100 kPa, Vibrating tube method	0.0009556
284.15 K, 100 kPa, Vibrating tube method	0.0009562
285.16 K, 100 kPa, Vibrating tube method	0.0009568
286.16 K, 100 kPa, Vibrating tube method	0.0009574
287.16 K, 100 kPa, Vibrating tube method	0.0009579
287.99 K, 198800 kPa, Bellows volumetry	0.0009078
288 K, 100100 kPa, Bellows volumetry	0.0009305
288.03 K, 49500 kPa, Bellows volumetry	0.0009439
288.04 K, 148900 kPa, Bellows volumetry	0.0009188
288.11 K, 248600 kPa, Bellows volumetry	0.0008977
288.11 K, 298400 kPa, Bellows volumetry	0.0008885
288.12 K, 49600 kPa, Bellows volumetry	0.0009432
288.12 K, 198700 kPa, Bellows volumetry	0.000907
288.12 K, 348400 kPa, Bellows volumetry	0.0008794
288.13 K, 100 kPa, Vibrating tube method	0.0009585
288.13 K, 98100 kPa, Bellows volumetry	0.0009301
288.13 K, 148600 kPa, Bellows volumetry	0.0009182
288.16 K, 100 kPa, Vibrating tube method	0.0009585
288.22 K, 249300 kPa, Bellows volumetry	0.000897
288.3 K, 100900 kPa, Bellows volumetry	0.0009295
288.31 K, 149300 kPa, Bellows volumetry	0.0009178
288.31 K, 201100 kPa, Bellows volumetry	0.0009066
288.31 K, 300500 kPa, Bellows volumetry	0.0008875
288.31 K, 348700 kPa, Bellows volumetry	0.0008793
288.32 K, 100 kPa, Vibrating tube method	0.0009586
288.33 K, 49800 kPa, Bellows volumetry	0.0009434
288.33 K, 249400 kPa, Bellows volumetry	0.0008969
288.35 K, 350000 kPa, Bellows volumetry	0.0008796
288.36 K, 299200 kPa, Bellows volumetry	0.0008882
289.16 K, 100 kPa, Vibrating tube method	0.0009591
290.16 K, 100 kPa, Vibrating tube method	0.0009597
291.15 K, 100 kPa, Vibrating tube method	0.0009603
292.15 K, 100 kPa, Vibrating tube method	0.000961
293.15 K, 100 kPa, Vibrating tube method	0.0009616
294.15 K, 100 kPa, Vibrating tube method	0.0009622
295.15 K, 100 kPa, Vibrating tube method	0.0009628
296.16 K, 100 kPa, Vibrating tube method	0.0009634
297.16 K, 100 kPa, Vibrating tube method	0.0009641
298.16 K, 100 kPa, Vibrating tube method	0.0009647
299.16 K, 100 kPa, Vibrating tube method	0.0009653
300.16 K, 100 kPa, Vibrating tube method	0.000966
301.16 K, 100 kPa, Vibrating tube method	0.0009666
302.16 K, 100 kPa, Vibrating tube method	0.0009673
303.16 K, 100 kPa, Vibrating tube method	0.0009679
304.16 K, 100 kPa, Vibrating tube method	0.0009685
305.16 K, 100 kPa, Vibrating tube method	0.0009692
306.16 K, 100 kPa, Vibrating tube method	0.0009699
307.15 K, 100 kPa, Vibrating tube method	0.0009705
308.15 K, 100 kPa, Vibrating tube method	0.0009712
309.15 K, 100 kPa, Vibrating tube method	0.0009719
310.15 K, 100 kPa, Vibrating tube method	0.0009725
311.15 K, 100 kPa, Vibrating tube method	0.0009732
312.15 K, 100 kPa, Vibrating tube method	0.0009739
313.15 K, 100 kPa, Vibrating tube method	0.0009746
